Test results published in patent publication US9493833B1, “Methods for preventing induced synthesis of proteasomes in human cells” (THE REGENTS OF THE UNIVERSITY OF CALIFORNIA, priority 2009, dated 2016).
Where a SMILES comes first, the peptide text is derived from it. The star is where a group is joined. Cbz = O=C(OCc1ccccc1)*; CH2F = FC*

Tests used:
cleaved caspase-3 = assay: Immunoblot of cleaved caspase-3 in MDA-MB-231 and U2OS cells; type: cell-based, human; settings: Nrf1-depleted cells; YU101 48 hrs (MDA-MB-231) or 24 hrs (U2OS)
Description: (§1) HT29 cells were treated with either MG132 (2 μM), YU101 (100 nM) or Bortezomib (40 nM) for 1 hr after which the drugs were washed off and the cells were allowed to recover in the absence or presence of 50 μg/ml cycloheximide (CHX) (FIG. 11A). Cells were frozen at different time points as indicated and were used for proteasome activity assays as described herein. For each time point, the results are normalized to DMSO-treated control in the case of hatched lines and to CHX-treated control in the case of solid lines. Error bars denote SD (n=3). WT and Nrf1^−/− MEFs were treated with either MG132 (50 μM) or YU101 (300 nM) for an hour after which the drugs were washed off and proteasome activity was measured for cells collected at different time points as indicated (FIG. 11A). […] The results were normalized to DMSO-treated control for each cell type. Error bars denote S.E.M. (n=2). MDA-MB-231 and U2OS cells were transduced with retrovirus expressing either sh-Nrf1 or vector control, and 48 hrs later were seeded in to 96-well plates. The next day, the cells were treated with indicated concentrations of YU101 and the pan-caspase inhibitor Z-VAD-FMK, and further incubated for 72 hrs. The cell viability was then assessed using the CellTiter-Glo method (FIG. 12A). The results were normalized to DMSO-treated control which was set to 100% in each case. Error bars denote S.E.M. (n=2). […]

[1] = tested on: PSM genes (PSMA7, PSMB4, PSMB7, PSMC1, PSMC4, PSMD1, PSMD12); assay: mRNA levels of representative PSM genes by quantitative RT-PCR in LNCaP and HT-29 cells treated with proteasome inhibitors or MLN4924; type: cell-based, human; settings: 10 hrs, normalized to GAPDH, DMSO set to 1
Description: (§2) The human prostate cancer LNCaP and colon cancer HT29 cell lines were incubated with different proteasome inhibitors (MG132, YU101, and bortezomib) or the Nedd8 pathway inhibitor MLN4924 (Soucy et al., 2009, Nature, 458, 732-736). Prostate cancer LNCaP and colon cancer HT-29 cells were treated with the indicated concentrations of proteasome inhibitors (MG132, YU101, and Bortezomib) or the Nedd8 pathway inhibitor (MLN4924) for 10 hrs, and mRNA levels of representative PSM genes were analyzed by quantitative RT-PCR (FIGS. 1A-1C). The values were normalized to GAPDH and for each cell line the DMSO treated sample was set to 1. Error bars denote SD (n=3). […] MLN4924 works by inhibiting the Nedd8-activating enzyme, the result of which is the accumulation of cullin-RING ligase (CRL) substrates (Soucy et al., 2009).
(§3) RNA was isolated using the RNeasy kit (Qiagen). cDNA was prepared using the Superscript III first strand synthesis kit (Invitrogen) according to the manufacturer's recommendations. Quantitative PCR (qPCR) was performed using the SYBR GreenER supermix (Invitrogen).

proteasome = molecular target: T1, proteasome (Mus musculus, UniProt O09061+O55234); assay: Proteasome activity recovery assay in WT and Nrf1−/− MEFs; type: cell-based; settings: YU101 300 nM 1 hr then wash-off, single-phase exponential curve fit
T1 construct: endogenous in cells; host or cells: WT and Nrf1-/- mouse embryonic fibroblasts, immortalized with shRNA against p19ARF
Description: Cells were frozen at different time points as indicated and were used for proteasome activity assays as described herein. For each time point, the results are normalized to DMSO-treated control in the case of hatched lines and to CHX-treated control in the case of solid lines. Error bars denote SD (n=3). […] The results were normalized to DMSO-treated control for each cell type. Error bars denote S.E.M. (n=2). […] The next day, the cells were treated with indicated concentrations of YU101 and the pan-caspase inhibitor Z-VAD-FMK, and further incubated for 72 hrs. The cell viability was then assessed using the CellTiter-Glo method (FIG. 12A). The results were normalized to DMSO-treated control which was set to 100% in each case. Error bars denote S.E.M. (n=2). […] The cell lysates were used for immunoblotting to detect the levels of Nrf1 (with the antibody raised against N-terminus) and cleaved caspase-3. β-actin protein levels were used as loading control. […] The cells were then washed with PBS thrice and allowed to recover in fresh medium. At definite time points, the cells were freeze-thawed in TE buffer (20 mM Tris pH 8, 5 mM EDTA) and subsequently used for measuring proteasome activity as described previously (Demo et al., 2007).

[2] = tested on: MDA-MB-231 and U2OS cells; assay: CellTiter-Glo cell viability with YU101, sh-Nrf1 and Z-VAD-FMK; type: cell-based, human; settings: 72 hrs
Description: as §1, with “MDA-MB-231 and U2OS cells were transduced with retrovirus expressing either sh-Nrf1 or vector control, and 48 hrs later were seeded in to 96-well plates. The next day, the cells were treated with indicated concentrations of YU101 and the pan-caspase inhibitor Z-VAD-FMK, and further incubated for 72 hrs.” left out, “12A).” for “12A). The results were normalized to DMSO-treated control which was set to 100% in each case. Error bars denote S.E.M. (n=2).”
Cells in 96-well plates were treated with different agents as required and cell viability was assessed using the Cell-Titer Glo kit (G7572; Promega) according to the protocol recommended by the manufacturer. By employing a luminescence read-out, this kit quantifies the level of ATP which is proportional to the number of viable cells.

NQO1 = NQO1 mRNA level by quantitative RT-PCR in LNCaP and HT-29 cells; type: cell-based, human; settings: 10 hrs, same treatment conditions
Description: as §2, §3

Structure (SMILES)	level of cleaved caspase-3 (cleaved caspase-3)	mRNA levels of PSM genes [1]	time taken to recover half of the inhibited activity (proteasome; Nrf1−/− MEFs)	time taken to recover half of the inhibited activity (proteasome; WT MEFs)	effect of co-treatment on sensitization to YU101 killing [2]	NQO1 mRNA (Nrf2 target gene) (NQO1)
CC(=O)NC(CCc1ccccc1)C(=O)NC(CC(C)C)C(=O)NC(Cc1ccccc1)C(=O)NC(CC(C)C)C(=O)C1(C)CO1 (stereo not shown) [YU101]	elicited an enhanced level of cleaved caspase-3	robustly induce mRNA levels of several PSM genes	15.96 ± 5.49 h	6.92 ± 1.64 h		
COC(=O)C[C@H](NC(=O)[C@H](C)NC(=O)[C@@H](NC(=O)OCc1ccccc1)C(C)C)C(=O)CF [Z-VAD-FMK] (Cbz-Val-Ala-Asp(OMe)-CH2F)					this effect was blunted	
NS(=O)(=O)OC[C@@H]1C[C@@H](n2ccc3c(N[C@H]4CCc5ccccc54)ncnc32)C[C@@H]1O [MLN4924]		failed to appreciably induce the PSM genes				activation of its downstream target genes, as observed for NQO1
